Test results: PMC10897476, “Pyridylpiperazine efflux pump inhibitor boosts in vivo antibiotic efficacy against K. pneumoniae” (EMBO Molecular Medicine, 2023)
Where “and” joins values, the source holds several entries; their conditions need not be identical. Equal values may be shown once.

Columns and labels:
[1] = system: K. pneumoniae ATCC 43816; experiment: K. pneumoniae mouse lung infection (lung CFU); assay type: in vivo, Klebsiella pneumoniae; conditions: for reduction in lung bacterial load compared to untreated mice: at 24 h
Description: Mice experiments complied with national, institutional and European regulations and ethical guidelines, were in accordance with ARRIVE guidelines 2.0 and were approved by the Institutional Animal Care and Use Committee (animal facility agreement D59-350009, Institut Pasteur de Lille, protocol reference: APAFIS#25953, 2020060916081461_v2). Six to eight weeks old female C57BL/6JRj mice were purchased from Janvier Laboratories (Saint Berthevin, France), allocated into experimental groups in a random fashion and maintained in individually ventilated cages (Innorack® IVC Mouse 3.5) and handled in a vertical laminar flow biosafety cabinet (Class II Biohazard, Tecniplast). All infections were performed in an animal biosafety level 2 facility.
Inoculum was prepared as follows. Tryptic Soy broth was inoculated with K. pneumoniae from a frozen stock and grown overnight at 37 °C without shaking. 1 mL of this overnight bacterial culture was transferred to a warm fresh Tryptic Soy broth and grown at 37 °C until it reached the mid-log. Cells were pelleted, washed with PBS and resuspended to the appropriate concentration.
22 h post-infection, mice were treated with BDM91288 (5) (30 mg/kg, 200 µL, formulated in 10% hydroxypropyl-beta-cyclodextrine (Kleptose HP; Roquette) at 3 mg/mL) by intragastric route. […] At 4 h or 24 h post antibiotic treatment, mice were euthanized by cervical dislocation. Lungs were collected in 1 mL of PBS, homogenized with a T-25 digital Ultraturrax® (IKA). CFU counts were determined by plating serial dilutions onto Tryptic Soy agar plate.

[2] = Microsomal stability in mouse liver microsomes; assay type: in vitro ADME; conditions: female
Experimental: To determine compound microsomal stability, liver microsomes from female mice (CD-1, Corning) were used. All incubations were performed in duplicate in a shaking water bath at 37 °C. The incubation mixtures contained 1 μM compound with 1% MeOH used as a vehicle, mouse liver microsomes (0.3 mg of microsomal protein per mL), 5 mM MgCl2, 1 mM NADP, 5 mM glucose 6-phosphate, 0.4 U/mL glucose 6-phosphate dehydrogenase, and 50 mM potassium phosphate buffer (pH 7.4) in a final volume of 0.5 mL. Propranolol, known as a high hepatic clearance drug in rodents, was used as a quality-control compound. Controls (t0 and tfinal) were performed in the same conditions but without NADP. The reaction was initiated by the addition of the compound at 1 µM final. Aliquots were removed at 5, 10, 20, 30, and 40 min and the reaction was stopped by adding four volumes of ice-cold MeCN or MeOH containing an internal standard. The samples were centrifuged for 10 min at 12,000 rpm at 4 °C and the supernatants were transferred in matrix tubes for LC-MS/MS analysis. Each compound was quantified by converting the corresponding analyte/internal standard peak area ratios to percentage drug remaining, using the initial ratio values in control incubations as 100%.
Intrinsic clearance (CLint) is expressed as μL/min/mg proteins.

[3] = system: K. pneumoniae AcrB variant V448E; experiment: Berberine accumulation assay, K. pneumoniae AcrB V448E; assay type: cell-based, Klebsiella pneumoniae; conditions: K. pneumoniae producing AcrB variant V448E
Experimental: (§1) The accumulation of the berberine AcrB substrate in K. pneumoniae WT and AcrB-V448E cells in the presence of different BDM91288 (5) concentrations was determined as described (Plé et al, [2022]) with minor modifications. Briefly, an overnight LB pre-culture of each strain (0.6 mL) was used to inoculate a 30-mL LB culture and incubated for around 2 h (37 °C, 150 rpm) to reach OD600 around 1. Cells were harvested by centrifugation (4000 × g, 10 min at 4 °C), washed three times with 10 mL of ice-cold buffer (50 mM potassium-phosphate pH 7.5 and 1 mM MgSO4) and resuspended into the same buffer containing also 0.2% glucose to an OD600 of 2. The bacterial suspension was then allowed to reach room temperature, after which 200 µL was dispensed to wells of an assay ready 96-black-well plate (Greiner Bio-One) containing 2 µL of 100× concentrated serial dilution of BDM91288 (5). To initiate the uptake experiment, 2 µL of berberine 20 mM (final concentration of 200 µM) was added to each well and transferred to a microplate fluorescence plate reader (Spark, Tecan), where the kinetics of berberine uptake was monitored for 20 min at 30 °C (excitation 365 nm/emission 540 nm). Experiments were performed 4 independent times, and berberine uptake was calculated for all conditions as the rate of fluorescence increase over the first 10 min and expressed as RFU/min (mean ± SD). […]

[4] = in vitro; assay type: cell-based; conditions: mouse, BALB/3T3 cells, read-out: in vitro cytotoxicity CC50
Experimental: BALB/3T3 cells (CCL-163 from ATCC) were not authenticated. The cell lines were tested negative for mycoplasma contamination (kit mycoalert LONZA). The cytotoxicity of compound BDM91288 (5) was determined on BALB/3T3 cells using live imaging following both Hoechst 33342 and propidium iodide staining. Propidium iodide is a not membrane-permeable DNA stain, allowing to differentiate necroptic, apoptotic and healthy cells based on loss of membrane integrity. […] Final medium volume was 70 µL. 24 h after compounds addition, live imaging was performed using the automated confocal microscope In Cell Analyzer 6000 (GE Healthcare). The cytotoxicity was defined as the percent of cells labelled by propidium iodide in the total cell population (Hoechst labelled cells) using Columbus software (Perkin Elmer). Compounds were tested in triplicate. Carfilzomib (499, 249, […], 61, and 30.6 nM) was used as a positive control in this assay.

[5] = target: K. pneumoniae AcrB (Klebsiella pneumoniae, UniProt A0A332Z023); experiment: Berberine accumulation assay, K. pneumoniae WT; assay type: cell-based; conditions: read-out: apparent Ki, concentration-dependent stimulation of berberine uptake, 200 µM berberine
Experimental: as §1

Sequence of K. pneumoniae AcrB (A0A332Z023 entry or part of it): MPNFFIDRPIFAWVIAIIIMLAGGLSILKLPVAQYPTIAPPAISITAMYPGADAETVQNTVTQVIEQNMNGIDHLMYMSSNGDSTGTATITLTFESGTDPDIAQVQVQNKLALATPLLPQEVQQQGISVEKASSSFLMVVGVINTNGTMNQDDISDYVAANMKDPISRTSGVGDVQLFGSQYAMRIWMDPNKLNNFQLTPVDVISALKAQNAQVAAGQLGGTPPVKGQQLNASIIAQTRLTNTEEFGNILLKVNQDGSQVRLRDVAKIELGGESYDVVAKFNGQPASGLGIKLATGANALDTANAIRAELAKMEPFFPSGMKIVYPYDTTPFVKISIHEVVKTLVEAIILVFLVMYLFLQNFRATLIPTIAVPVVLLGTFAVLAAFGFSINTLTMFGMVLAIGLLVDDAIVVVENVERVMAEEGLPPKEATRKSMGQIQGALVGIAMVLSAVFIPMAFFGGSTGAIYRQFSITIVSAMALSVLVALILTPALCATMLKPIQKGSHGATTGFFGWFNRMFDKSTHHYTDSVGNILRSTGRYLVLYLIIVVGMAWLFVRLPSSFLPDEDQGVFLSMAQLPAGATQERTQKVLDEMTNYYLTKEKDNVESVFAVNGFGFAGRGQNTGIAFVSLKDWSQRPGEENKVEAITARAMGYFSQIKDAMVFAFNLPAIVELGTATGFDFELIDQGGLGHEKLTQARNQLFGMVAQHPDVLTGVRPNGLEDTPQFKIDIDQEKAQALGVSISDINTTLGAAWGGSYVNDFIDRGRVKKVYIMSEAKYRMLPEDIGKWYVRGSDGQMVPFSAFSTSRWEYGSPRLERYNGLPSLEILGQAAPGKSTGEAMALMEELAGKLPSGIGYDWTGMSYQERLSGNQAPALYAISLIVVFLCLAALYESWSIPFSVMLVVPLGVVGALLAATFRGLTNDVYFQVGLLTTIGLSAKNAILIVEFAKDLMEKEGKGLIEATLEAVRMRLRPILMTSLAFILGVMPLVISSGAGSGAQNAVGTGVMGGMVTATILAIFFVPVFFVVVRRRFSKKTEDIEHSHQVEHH

| Structure (SMILES) | CFU counts, lung, single animals ([1]; 4h post-treatment, levofloxacin 10mg/kg) | CFU counts, lung, single animals ([1]; 4h post-treatment, levofloxacin 50mg/kg) | CFU counts, lung, single animals ([1]; 24h post-treatment, levofloxacin 10mg/kg) | CFU counts, lung, single animals ([1]; 24h post-treatment, levofloxacin 50mg/kg) | reduction in lung bacterial load compared to untreated mice ([1]; single dose 10 mg/kg i.p.) | reduction in lung bacterial load compared to untreated mice ([1]; single dose 50 mg/kg i.p.) | microsomal CLint at 1 μM ([2]; CD-1, pH 7.4, read-out: Microsomal stability CLint (intrinsic clearance)) | half-life at 1 μM ([2]; CD-1, pH 7.4, read-out: Microsomal stability t1/2) | concentration-dependent stimulation of berberine uptake [3] | CC50 at 24 h [4] | CFU counts, lung, single animals ([1]; 4h post-treatment, BDM91288 + levofloxacin 10mg/kg) | CFU counts, lung, single animals ([1]; 4h post-treatment, BDM91288 alone) | CFU counts, lung, single animals ([1]; 24h post-treatment, BDM91288 + levofloxacin 10mg/kg) | CFU counts, lung, single animals ([1]; 24h post-treatment, BDM91288 alone) | impact on the K. pneumoniae bacterial load in the lungs ([1]; single dose 30 mg/kg p.o., alone) | Ki [5] |
| --- | --- | --- | --- | --- | --- | --- | --- | --- | --- | --- | --- | --- | --- | --- | --- | --- |
| C[C@H]1COc2c(N3CCN(C)CC3)c(F)cc3c(=O)c(C(=O)O)cn1c23 [Levofloxacin] | 2830 CFU and 567 CFU and 1330 CFU and 3170 CFU and 3670 CFU and 1830 CFU and 4670 CFU and 7670 CFU and 717 CFU and 3330 CFU and 2170 CFU and 833 CFU and 2000 CFU and 500 CFU and 450 CFU and 150 CFU | 200 CFU and 50 CFU and 267 CFU and 16.7 CFU and 117 CFU and 350 CFU and 583 CFU and 450 CFU and 833 CFU and 1000 CFU and 133 CFU and 667 CFU and 1330 CFU and 1500 CFU and 1170 CFU and 367 CFU | 117 CFU and 83.3 CFU and 15300 CFU and 26700 CFU and 7500 CFU and 1000 CFU and 6330 CFU and 9170 CFU | 16.7 CFU and 167 CFU and 66.7 CFU and 50 CFU and 100 CFU and 83.3 CFU | 3.2 log | 5.9 log |  |  |  |  |  |  |  |  |  |  |
| Clc1cc2cc(N3CCNCC3)ccc2nc1N1CCNCC1 [compound 5] |  |  |  |  |  |  | 6 µL/min/mg | > 40 min | not observed | 48 µM | 250 CFU and 1500 CFU and 667 CFU and 267 CFU and 483 CFU and 1830 CFU and 1670 CFU and 500 CFU and 1170 CFU and 517 CFU and 833 CFU and 383 CFU and 650 CFU and 550 CFU and 450 CFU and 2670 CFU and 3170 CFU and 1000 CFU and 583 CFU | 433000 CFU and 400000 CFU and 533000 CFU and 817000 CFU and 13800000 CFU and 2670000 CFU and 5170000 CFU and 2330000 CFU and 550000 CFU and 700000 CFU and 1830000 CFU and 250000 CFU and 1030000 CFU and 600000 CFU and 1120000 CFU and 317000 CFU and 1380000 CFU and 167000 CFU and 2500000 CFU and 450000 CFU and 267000 CFU and 567000 CFU | 16.7 CFU and 1500 CFU and 117 CFU and 200 CFU and 850 CFU and 517 CFU and 350 CFU and 683 CFU and 283 CFU | 98300 CFU and 4500000 CFU and 26700000 CFU and 31700000 CFU and 28300000 CFU and 1650000 CFU and 18300000 CFU and 13300000 CFU and 10000000 CFU and 12300000 CFU and 6170000 CFU and 7000000 CFU and 20000000 CFU and 483000 CFU and 16700000 CFU | no impact | ~20 µM |
